In US20240173419A1, “CDK2 DEGRADERS AND USES THEREOF” (Kymera Therapeutics, Inc., priority 2022, published 2024):

Target: T1, CDK2 (Homo sapiens, UniProt P24941)
T1 construct: endogenous in cells; host or cells: MKN1 cells
Test: CDK2 degradation in MKN1 cells (AlphaLISA)
Type: cell-based
Conditions: 14 h incubation; for DC50: read-out: CDK2 degradation 14 h: Mean external-Abs DC50
Summary of the method: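 DC50 from four-parameter logistic fit of AlphaLISA CDK2 signal, corrected for no-cell wells. Lysates came from MKN1 cells, 2e4 per well, exposed 14 h at 37° C to compound at 0.001 nM-10 μM (1:5 series, 11 doses) in 0.1% DMSO.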

Row | SMILES | CDK2 degradation 14 h: Average Dmax % | DC50
1 | Cc1cc(S(=O)(=O)NCCOC2CCC3(CC2)CCN(CC#Cc2ccc4c(c2)n(C)c(=O)n4C2CCC(=O)NC2=O)CC3)ccc1Nc1ncc2ccc(=O)n(C3CCCC3)c2n1 (stereo not shown) [I-471] | A (A (>75% o)) | < 100 nM
2 | Cc1cc(S(=O)(=O)C2CC3(CCN(CC4CCN(c5ccc6c(c5F)n(C)c(=O)n6C5CCC(=O)NC5=O)CC4)CC3)C2)ccc1Nc1ncc2c(n1)N(C1CCCC1)C(=O)C2(C)C (stereo not shown) [I-524] | A (A (>75% o)) | < 100 nM
3 | Cc1cc(S(=O)(=O)N2CC(OCCN3CCC(c4ccc5c(c4)n(C)c(=O)n5C4CCC(=O)NC4=O)CC3)C2)ccc1Nc1ncc2ccc(=O)n(C3CCCC3)c2n1 (stereo not shown) [I-462] | A (A (>75% o)) | < 100 nM
4 | Cc1cc(S(=O)(=O)N2CCC(CN(C)C3CCN(c4cccc5c(N6CCC(=O)NC6=O)cncc45)CC3)CC2)ccc1Nc1ncc2cc(Cl)c(=O)n(C3CCCC3)c2n1 [I-416] | A (A (>75% o)) | < 100 nM
5 | Cc1cc(S(=O)(=O)N2CCC(CN(C)C3CCN(c4cccc5c4n(C)c(=O)n5C4CCC(=O)NC4=O)CC3)CC2)ccc1Nc1ncc(C(F)(F)F)c(C2CCCCC2)n1 (stereo not shown) [I-1153] | A (A (>75% o)) | 100 to 500 nM
6 | Cc1cc(S(=O)(=O)NC2CCC(CCN3CCN(c4ccc(C5CCC(=O)NC5=O)cc4F)CC3)CC2)ccc1Nc1ncc2c(n1)N(C1CCCC(O)C1)C(=O)C21CC1 (stereo not shown) [I-939] | B (B (>50% -75%)) | < 100 nM
7 | Cc1cc(S(=O)(=O)NC2CC(N3CCN(CC4CCN(c5cccc(C6CCC(=O)NC6=O)c5)CC4)CC3)C2)ccc1Nc1ncc(C(F)(F)F)c(N2CCCC(C)(O)C2)n1 (stereo not shown) [I-718] | A (A (>75% o)) | 100 to 500 nM
8 | Cc1cc(S(=O)(=O)NC(C)COC2CCC(CN3CCN(c4ccc5c(c4F)n(C)c(=O)n5C4CCC(=O)NC4=O)CC3)CC2)ccc1Nc1ncc(C(F)(F)F)c(N2CCCC(C)(O)C2)n1 (stereo not shown) [I-844] | A (A (>75% o)) | < 100 nM
9 | Cc1cc(S(=O)(=O)C2CC3(CCN(CC4CCN(c5ccc(NC6CCC(=O)NC6=O)cc5C)CC4)CC3)C2)ccc1Nc1ncc2cc(Cl)c(=O)n(C3CCCC3)c2n1 (stereo not shown) [I-75] | B (B (>50% -75%)) | 100 to 500 nM
10 | Cc1c(Nc2ncc(C(F)(F)F)c(N3CCCC(C)(O)C3)n2)ccc(S(=O)(=O)NC2CCC(CN3CCN(c4ccc(C5CCC(=O)NC5=O)c(F)c4)CC3)CC2)c1F (stereo not shown) [I-1105] | A (A (>75% o)) | < 100 nM
11 | C[C@]1(O)CCC[C@H]1n1c(=O)c(C(F)F)cc2cnc(NC3CCN(C(=O)COCCOCCNc4cccc5c4C(=O)N(C4CCC(=O)NC4=O)C5=O)CC3)nc21 (stereo partly shown) [I-491] | D (D (<25%)) | > 1000 nM
12 | Cc1cc(S(=O)(=O)NC2CCC(CN3CCN(c4ncc(C5CCC(=O)NC5=O)cc4F)CC3)CC2)ccc1Nc1ncc(C(F)(F)F)c(N2CCCC(C)(O)C2)n1 (stereo not shown) [I-1142] | A (A (>75% o)) | < 100 nM
13 | Cc1cc(S(=O)(=O)NC2CCC(CN3CCC(c4ccc(C5CCC(=O)NC5=O)c(F)c4)CC3)CC2)ccc1Nc1ncc(C(F)(F)F)c(N2CCCC(C)(O)C2)n1 (stereo not shown) [I-1131] | A (A (>75% o)) | < 100 nM
14 | Cn1c(=O)n(C2CCC(=O)NC2=O)c2cccc(CCCOCCOCC(=O)N3CCC(Nc4ncc5cc(C(F)F)c(=O)n([C@@H]6CCC[C@]6(C)O)c5n4)CC3)c21 (stereo partly shown) [I-499] | D (D (<25%)) | > 1000 nM
15 | Cc1cc(S(=O)(=O)NC2CCC(CN3CCN(c4cc(C)c(C5CCC(=O)NC5=O)cc4F)CC3)CC2)ccc1Nc1ncc(C(F)(F)F)c(N2CCCC(C)(O)C2)n1 (stereo not shown) [I-940] | A (A (>75% o)) | < 100 nM
16 | Cc1cc(S(=O)(=O)NCCOCCOCCCc2ccc3c(c2)n(C)c(=O)n3C2CCC(=O)NC2=O)ccc1Nc1ncc2cc(C(F)F)c(=O)n(C3CCCC3(C)O)c2n1 (stereo not shown) [I-484] | A (A (>75% o)) | < 100 nM
17 | Cc1cc(S(=O)(=O)NC2CCC(CN3CCN(c4ccc(NC5CCC(=O)NC5=O)cc4F)CC3)CC2)ccc1Nc1ncc(C(F)(F)F)c(N2CCCC(C)(O)C2)n1 (stereo not shown) [I-822] | A (A (>75% o)) | < 100 nM
18 | Cc1cc(S(=O)(=O)C2CC3(CCN(CC4CCN(c5ccc(NC6CCC(=O)NC6=O)c(C)c5)CC4)CC3)C2)ccc1Nc1ncc2cc(Cl)c(=O)n(C3CCCC3)c2n1 (stereo not shown) [I-76] | B (B (>50% -75%)) | 500 to 1000 nM
19 | Cc1cc(S(=O)(=O)C2CC3(CCN(CC4CCN(c5ccc6c(oc(=O)n6C6CCC(=O)NC6=O)c5F)CC4)CC3)C2)ccc1Nc1ncc2cc(Cl)c(=O)n(C3CCCC3)c2n1 (stereo not shown) [I-302] | A (A (>75% o)) | < 100 nM
20 | Cc1cc(S(=O)(=O)N[C@H]2CC[C@H](CN3CCN(c4ccc(C5CCC(=O)NC5=O)cc4F)C[C@@H]3C)CC2)ccc1Nc1ncc(C(F)(F)F)c(N2CCC[C@](C)(O)C2)n1 (stereo partly shown) [I-810] | A (A (>75% o)) | < 100 nM
